According to the NIST ThermoML archive (doi:10.1021/je050498q):
± gives the expanded uncertainty stated by the source.

How the values were obtained:
[1] = refractive index (Na D-line) (dimensionless); wn = mass fraction of the nth substance listed; details: 101 kPa, Liquid, w2 = 0
[2] = wn = mass fraction of the nth substance listed; details: 101 kPa, Liquid, w2 = 0

O [water] + O=C([O-])[C@H](O)[C@@H](O)C(=O)[O-].[Na+].[Na+]
refractive index ([1]; 298.15 K): 1.3325 ± 0.0007
refractive index ([1]; 308.15 K): 1.3313 ± 0.0007
refractive index ([1]; 318.15 K): 1.33 ± 0.0007
viscosity ([2]; 298.15 K): 0.89 ± 0.023 mPa·s
viscosity ([2]; 308.15 K): 0.729 ± 0.019 mPa·s
viscosity ([2]; 318.15 K): 0.6 ± 0.017 mPa·s
